Among the data in US20260209214A1, “LSD1 MODULATORS” (RECURSION PHARMACEUTICALS, INC., priority 2022, published 2026) are IC50 values, retold here.

In the assay the target is Recombinant human LSD1 (Homo sapiens, UniProt O60341). Nature of the assay: LSD1 inhibition assay (HTRF LSD1 Histone H3K4 mono-demethylation assay, me1->me0). Format: biochemical. The settings on record: 20 nM recombinant human LSD1, 95 nM H3K4(me1) biotinylated peptide, 15 min preincubation, 60 min at 25° C., read-out: LSD1 inhibition IC50 (nM range). The gist of the method: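 HTRF demethylation (me1->me0) read-out: streptavidin-XL665 and anti-H3K4me0 cryptate added after reaction, ratio measured after 90 min dark. Reaction: 95 nM H3K4me1 biotin-peptide, 20 nM LSD1 (15-min compound pre-incubation), 60 min, 25 °C, buffer pH 8.5 plus FAD and DTT; 4-parameter logistic IC50.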
In general terms: In TR-FRET formats the signal depends on donor and acceptor labels being close together.

Structures are written as SMILES.

As usually defined, the IC50 is the concentration needed to halve the response being measured. `N#Cc1ccc(-c2cccc(CN3[C@@H]4CC[C@H]3[C@@H](N)C4)c2OCC2CC2)cc1F` (racemic) [Example 245, 3'-{[(1S,2S,4R)-2-amino-7-azabicyclo[2.2.1]heptan-7-yl]methyl}-2'-(cyclopropylmethoxy)-3-fluoro-[1,1'-biphenyl]-4-carbonitrile]: the IC50 lay within 25 to 100 nM.

Take `N#Cc1ccc(-c2cccc(CC3CNCCO3)c2-c2ccno2)cc1` (centres unmarked) [Example 12, 3′-[(morpholin-2-yl)methyl]-2′-(1,2-oxazol-5-yl)-[1,1′-biphenyl]-4-carbonitrile]: the IC50 was in the range of 10 to 25 nM.

As to `N#Cc1ccc(-c2cc(F)cc(CC3CNCCO3)c2-c2cncs2)cc1F` (centres unmarked) [Example 19, 3,5′-difluoro-3′-[(morpholin-2-yl)methyl]-2′-(1,3-thiazol-5-yl)-[1,1′-biphenyl]-4-carbonitrile], the IC50 lay in the range of 10 to 25 nM.

On to `COCC1CCN(c2ccc(CC3CNCCCO3)cc2-c2ccc(C#N)c(F)c2)CC1` (centres unmarked) [Example 74, 3-fluoro-2′-[4-(methoxymethyl)piperidin-1-yl]-5′-[(1,4-oxazepan-2-yl)methyl]-[1,1′-biphenyl]-4-carbonitrile], for which the IC50 was 10 to 25 nM.

As to `N#Cc1ccc(-c2cccc(C[C@@H]3CNCCO3)c2-c2ccns2)cc1` (single isomer, unassigned) [Example 11], the IC50 lay within 10 to 25 nM.

For the compound `N#Cc1ccc(-c2cc(CC3CNCCO3)ccc2N2CC(CO)C2)cc1F` (centres unmarked) [Example 137, 3-fluoro-2′-[3-(hydroxymethyl)azetidin-1-yl]-5′-[(morpholin-2-yl)methyl]-[1,1′-biphenyl]-4-carbonitrile], the IC50 fell in the range of 100 to 1000 nM.

For `N#Cc1ccc(-c2cc(C3CC3)cc(CC3CNCCO3)c2-c2cncs2)cc1F` (centres unmarked) [Example 57, 5′-cyclopropyl-3-fluoro-3′-[(morpholin-2-yl)methyl]-2′-(1,3-thiazol-5-yl)-[1,1′-biphenyl]-4-carbonitrile], the IC50 lay within 10 to 25 nM.

With `C[C@]1(N)CCN(Cc2cccc(-c3ccc(C#N)c(F)c3)c2-c2ccns2)C1` [Example 302, 3'-{[(3S)-3-amino-3-methylpyrrolidin-1-yl]methyl}-3-fluoro-2'-(1,2-thiazol-5-yl)-[1,1'-biphenyl]-4-carbonitrile], the IC50 is less than 10 nM.

In the case of `N#Cc1ccc(-c2cc(CC3CNCCO3)ccc2C2CCCC2)cc1` (centres unmarked) [Example 162, 2′-cyclopentyl-5′-[(morpholin-2-yl)methyl]-[1,1′-biphenyl]-4-carbonitrile], the IC50 is more than 1000 nM.

Consider `N#Cc1ccc(-c2cccc(CN3[C@@H]4CC[C@H]3[C@@H](N)C4)c2C2CC2)cc1` (racemic) [Example 191, 3'-{[(1S,2S,4R)-2-amino-7-azabicyclo[2.2.1]heptan-7-yl]methyl}-2'-cyclopropyl-[1,1'-biphenyl]-4-carbonitrile], for which the concentration for half-maximal inhibition (IC50) was 25 to 100 nM.

In the case of `CCN1CCN(c2ccc(CC3CNCCO3)cc2-c2ccc(C#N)c(F)c2)CC1` (centres unmarked) [Example 164, 2′-(4-ethylpiperazin-1-yl)-3-fluoro-5′-[(morpholin-2-yl)methyl]-[1,1′-biphenyl]-4-carbonitrile], the IC50 was 100 to 1000 nM.

As for `N#Cc1ccc(-c2cccc(CN3CCC4(CCNC4)C3)c2-c2cnco2)cc1` (centres unmarked) [Example 325, 3'-({2,7-diazaspiro[4.4]nonan-2-yl}methyl)-2'-(1,3-oxazol-5-yl)-[1,1'-biphenyl]-4-carbonitrile], the IC50 was 10 to 25 nM.

Turning to `N#Cc1ccc(-c2cccc(CN3CC4CCC3CN4)c2Cl)cc1F` (centres unmarked) [Example 283, 2'-chloro-3'-({2,5-diazabicyclo[2.2.2]octan-2-yl}methyl)-3-fluoro-[1,1'-biphenyl]-4-carbonitrile], the IC50 lay within 100 to 1000 nM.

Take `CC1(F)CCN(c2ccc(CC3CNCCO3)cc2-c2ccc(C#N)c(F)c2)CC1` (centres unmarked) [Example 99, 3-fluoro-2′-(4-fluoro-4-methylpiperidin-1-yl)-5′-[(morpholin-2-yl)methyl]-[1,1′-biphenyl]-4-carbonitrile]: the half-inhibitory concentration (IC50) lay within 100 to 1000 nM.

As to `N#Cc1ccc(-c2cccc(CN3[C@@H]4CC[C@H]3[C@@H](N)C4)c2C2CCC2)cc1F` (racemic) [Example 218, 3'-{[(1S,2S,4R)-2-amino-7-azabicyclo[2.2.1]heptan-7-yl]methyl}-2'-cyclobutyl-3-fluoro-[1,1'-biphenyl]-4-carbonitrile], the IC50 is 10 to 25 nM.

For the compound `N#Cc1ccc(-c2cccc(CN3C[C@]4(N)CC[C@H]3C4)c2C2CC2)cc1F` [Example 193, 3'-{[(1S,4S)-4-amino-2-azabicyclo[2.2.1]heptan-2-yl]methyl}-2'-cyclopropyl-3-fluoro-[1,1'-biphenyl]-4-carbonitrile], the IC50 fell in the range of 10 to 25 nM.

Take `N#Cc1ccc(-c2cc(CC3CNC4(CC4)CO3)ccc2N2CCC2)cc1F` (centres unmarked) [Example 135, 2′-(azetidin-1-yl)-3-fluoro-5′-({7-oxa-4-azaspiro[2.5]octan-6-yl}methyl)-[1,1′-biphenyl]-4-carbonitrile]: the IC50 was more than 1000 nM.

For `Cc1cc(CNCC2CCCN(C)C2)c(Cl)c(-c2ccc(C#N)c(F)c2)c1` (centres unmarked) [Example 346, 2'-chloro-3-fluoro-5'-methyl-3'-({[(1-methylpiperidin-3-yl)methyl]amino}methyl)-[1,1'-biphenyl]-4-carbonitrile], the IC50 lay within 100 to 1000 nM.

As for `N#Cc1ccc(-c2cc(CN3[C@@H]4CC[C@H]3[C@@H](N)C4)ccc2C2CC2)cc1F` (racemic) [Example 309, 5'-{[(1S,2S,4R)-2-amino-7-azabicyclo[2.2.1]heptan-7-yl]methyl}-2'-cyclopropyl-3-fluoro-[1,1'-biphenyl]-4-carbonitrile], the IC50 is 10 to 25 nM.

As to `N#Cc1ccc(-c2cc(CC3CNCCO3)ccc2N2CC3(CCOC3)C2)cc1F` (centres unmarked) [Example 127], the concentration for half-maximal inhibition (IC50) lay in the range of 100 to 1000 nM.

Take `N#Cc1ccc(-c2cccc(CC3CNCCO3)c2N2CC(O)C2)cc1F` (centres unmarked) [Example 159, 3-fluoro-2′-(3-hydroxyazetidin-1-yl)-3′-[(morpholin-2-yl)methyl]-[1,1′-biphenyl]-4-carbonitrile]: the IC50 was more than 1000 nM.

As to `N#Cc1ccc(-c2cccc(CN3CC4CC(C3)N4)c2C2CC2)cc1F` [Example 323, 4-[2-cyclopropyl-3-(3,6-diazabicyclo[3.1.1]heptan-3-ylmethyl)phenyl]-2-fluoro-benzonitrile; (2R,3R)-2,3-dihydroxybutanedioic acid], the IC50 is 10 to 25 nM.

As to `CC1(C)CNCC(Cc2cccc(-c3ccc(C#N)cc3)c2-c2cncs2)O1` (centres unmarked) [Example 103, 3′-[(6,6-dimethylmorpholin-2-yl)methyl]-2′-(1,3-thiazol-5-yl)-[1,1′-biphenyl]-4-carbonitrile], the IC50 was in the range of 10 to 25 nM.

`N#Cc1ccc(-c2cc(F)cc(C[C@H]3CNCCO3)c2-c2ccns2)cc1F` (single isomer, unassigned) [Example 6]: the IC50 lay within 10 to 25 nM.

For the compound `Cc1ncsc1-c1c(CC2CNCCO2)cccc1-c1ccc(C#N)cc1` (centres unmarked) [Example 38, 2′-(4-methyl-1,3-thiazol-5-yl)-3′-[(morpholin-2-yl)methyl]-[1,1′-biphenyl]-4-carbonitrile], the IC50 lay within 10 to 25 nM.

On to `COc1c(CN2[C@@H]3CC[C@H]2[C@@H](N)C3)cccc1-c1ccc(C#N)c(F)c1` (racemic) [Example 180, 3'-{[(1S,2S,4R)-2-amino-7-azabicyclo[2.2.1]heptan-7-yl]methyl}-3-fluoro-2'-methoxy-[1,1'-biphenyl]-4-carbonitrile], for which the IC50 was 25 to 100 nM.
